Where two headings read alike, the source gives them in different places. Peptide text beside a SMILES is read from it. * marks the point of attachment. Cbz = O=C(OCc1ccccc1)*
Key:
Cathepsin-L [1] = molecular target: T1, Cathepsin-L (Homo sapiens, UniProt P07711); assay: Cathepsin-L Inhibitor Screening Kit (Fluorometric); type: biochemical
T1 construct: purchased BPS Bioscience 79591
Procedure: The effect of MG-132 on Cathepsin-L activity was measured using the Cathepsin-L Inhibitor Screening Kit (Fluorometric) (BPS Bioscience #79591, San Diego, CA, USA). The assay is based on the Cathepsin-L mediated cleavage of a synthetic fluorogenic substrate. Generated AFC is measured on a fluorescence microplate reader. The assay was performed according to the manufacturer protocol but adapted to 384-well format with a final volume of 10 μL. Briefly, compounds (stock in 100% v/v DMSO) are transferred in black 384-well microplates by acoustic dispensing (Echo, Labcyte, Beckman Coulter); 5 µL of diluted Cathepsin-L is added and incubated for 30 min at RT. The enzymatic reaction is initiated by the addition of 5 µL of the substrate. The fluorescence signal is detected in a kinetic mode for 15 min at 37 °C using Ex/Em = […] (Envision, PerkinElmer). Final assay concentrations were: Cathepsin-L 0.01 ng/μL, substrate 5 μM. E-64 provided in the kit was used as a positive control for Cathepsin-L inhibition and assay validation. DMSO was used as compound solvent control (0% inhibition).

Cathepsin-L [2] = tested on: Cathepsin-L; design: method as in https://www.apexbt.com/e-64.html; conditions: ref https://www.apexbt.com/e-64.html; read-out: IC50, Cathepsin-L inhibition, literature value; cited from earlier work
Mpro = assay: Thermostability assay (TSA); type: binding, SARS-CoV-2; conditions: 1 μM protein, normalized with DMSO
Procedure: A reaction mixture containing the protein at 1 μM final concentration and increasing molar excesses of MG-132 (1×, 3×, 10×, 20×, and 50×) was tested. In each well: 20 μL of buffer 5×, 2 μL of protein stock, the volume of MG-132 stock needed for the fixed molar excess, and Milli-Q H2O to reach 99 μL was added. The protein was left in incubation with the compound for 30 min at room temperature. The plate was put on ice, and 1 μL of 500 × SYPRO orange (Thermo Fischer Scientific) was added in each well. The plate was sealed and centrifuged at 200× g and 4 °C for 1 min. The melting curves were measured in a RT-PCR (Eppendorf, Milan, Italy). After a stationary phase of 2 min at 25 °C, the temperature was increased by 0.5 °C every 30 s until the maximum of 95 °C was reached. Fluorescence has been measured at each step. Each condition has been reproduced in tripled. The Tm control with the protein and the equivalent volume of DMSO only was assessed as well.

[3] = tested on: T2, SARS-CoV-2 protease PLpro; assay: Activity towards PLpro; type: biochemical; conditions: paper in preparation
T2 construct: the papain-like protease (PLpro; nsp3)
Description: Knowing the role of MG-132 in inhibition of the proteasome and representatives of Cathepsin and Calpain proteases, we investigated its role in the inhibition of Cathepsin-L, one of the key enzymes needed for the entry of SARS-CoV-2. Previously, we reported the anti-cytopathic activity of MG-132 in SARS-CoV-2 infected Vero-E cells [see CHEMBL Entry https://www.ebi.ac.uk/chembl/document_report_card/CHEMBL4495565/, accessed on 28 October 2021]. The results were confirmed by different groups reporting antiviral activity also in other cell lines like Huh-7 and Calu-3 all with sub-micromolar EC50 [39]. If we compare the antiviral activity in cells to the high IC50 measured against Mpro it is reasonable to assume that the effect on Mpro is probably too low to justify submicromolar cell activity, and thus it is supported by inhibition of host proteases. We have measured no activity towards the second SARS-CoV-2 protease PLpro (paper in preparation).

[4] = tested on: SARS-CoV-2 main protease (Mpro); design: method as in PMID 35287429; conditions: read-out: IC50 in the Mpro enzymatic assay, cited from earlier work
[5] = tested on: SARS-CoV-2 strain BetaCov/Belgium/GHB-03021/2020; design: method as in PMID 35287429; conditions: Vero-E6 cells infected by SARS-CoV-2; read-out: EC50, reduction of viral RNA (qPCR); cited from earlier work
[6] = tested on: rat liver isolated Cathepsin-L; design: method as in PMID 18830882; conditions: cited from earlier work
SARS-CoV-2 in Huh-7 = tested on: SARS-CoV-2 in Huh-7; design: method as in PMID 33811811; conditions: Huh-7 cells; cited from earlier work
SARS-CoV-2 in Calu-3 = tested on: SARS-CoV-2 in Calu-3; design: method as in PMID 33811811; conditions: Calu-3 cells; cited from earlier work

T1 sequence (P07711 114-333): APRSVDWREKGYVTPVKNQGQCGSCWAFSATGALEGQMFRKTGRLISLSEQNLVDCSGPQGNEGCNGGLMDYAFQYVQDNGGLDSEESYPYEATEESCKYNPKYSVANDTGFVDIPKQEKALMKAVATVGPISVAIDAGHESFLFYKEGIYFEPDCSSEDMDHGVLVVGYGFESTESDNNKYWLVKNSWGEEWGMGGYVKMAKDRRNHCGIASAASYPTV

SMILES | IC50 (Cathepsin-L [1]; Cathepsin-L 0.01 ng/μL, substrate 5 μM, 30 min incubation at RT, read-out: IC50, Cathepsin-L inhibition) | HillSlope, Cathepsin-L inhibition (Cathepsin-L [1]; fit values given in Figure 6) | LogIC50, Cathepsin-L inhibition (Cathepsin-L [1]; fit values given in Figure 6) | IC50 (Cathepsin-L [1]; fit values given in Figure 6, read-out: IC50 (M), Cathepsin-L inhibition) | IC50 (Cathepsin-L [2]) | ΔTm (Mpro; 50 molar excess of inhibitor) | ΔTm (Mpro; one molar excess of inhibitor) | IC50 (Cathepsin-L [1]; IC50 (M), Cathepsin-L inhibition, fit values given in Figure 6) | IC50 (Cathepsin-L [1]; IC50, Cathepsin-L inhibition, Cathepsin-L 0.01 ng/μL, substrate 5 μM, 30 min incubation at RT) | activity towards PLpro [3] | IC50 [4] | IC50 ([4]; with 1 mM DTT) | EC50 [5] | EC50 [6] | EC50, antiviral activity (SARS-CoV-2 in Huh-7) | EC50, antiviral activity (SARS-CoV-2 in Calu-3)
CC(C)C[C@H](NC(=O)[C@H]1O[C@@H]1C(=O)O)C(=O)NCCCCN=C(N)N [E64] | 2.7e-09 M | -2.040 | -8.560 | 2.75e-09 M | 2.5 nM |  |  |  |  |  |  |  |  |  |  | 
CC(C)C[C@@H](C=O)NC(=O)[C@H](CC(C)C)NC(=O)[C@H](CC(C)C)NC(=O)OCc1ccccc1 [MG-132] (Cbz-Leu-Leu-Leu-aldehyde) |  | -1.826 | -9.811 |  |  | 3.5 °C | 0.5 °C | 1.55e-10 M | 1.5e-10 M | no activity | 7400 nM | 4700 nM | 100 nM | 163 nM | sub-micromolar | sub-micromolar

— PMC8583849 (International Journal of Molecular Sciences, 2021)
